Legend:
Beagle dogs [1] = test: 28 day / 1-month toxicology study in beagle dogs; format: in vivo; conditions: for erythema and edema after oral administration: summary of toxicology studies up to 1 month in duration, beagle dog
Protocol: These findings occurred shortly after dosing, were transient in nature, maximal between approximately 1 to 2 hours after dosing, disappearing thereafter. There was a large interindividual variation in this response, with no dose-response relationship. Mechanistic studies to clarify the cause for erythema were not indicative of a histamine-based mechanism of action.

Beagle dogs [2] = test: Hypersensitivity testing: erythema and edema in dogs, single dose; format: in vivo; conditions: for induction of erythema and/or edema: single dose experiments in dogs, summary in words
Protocol: (§1) Studies were carried out to test for the occurrence of erythema and edema in dogs. The compound having structural formula (II) was orally administered to Beagle dogs in an appropriate formulation as a single-dose, dose-escalating study design. In order to achieve high systemic exposures, a so-called booster compound was co-administered (ritonavir, RTV). Blood samples were taken at regular time points following the dosing. Clinical signs were recorded at least once daily for the treatment period and follow up (for at least 24 hours). Symptoms were graded on a […], with 0 being absence of symptoms, 1 mild, 2, moderate, 3 severe, 4 very severe. Special attention was paid to the occurrence of erythema and edema.

[3] = test system: wild type laboratory HIV strain (WT IIIB-2-001); test: Cellular anti-viral assay in MT4-LTR-EGFP cells, wild type strain; format: cell-based; conditions: Human immunodeficiency virus 1, IIIB, 72 h; MT4-LTR-EGFP cells, three days, GFP signal; read-out: pEC50 WT-IIIB-2-001 (converted)
Protocol: The compounds were tested in a cellular assay using the MT4-LTR-EGFP cells for anti-viral activity.
The cellular assay was performed according to the following procedure. HIV- or mock-infected MT4-LTR-EGFP cells were incubated for three days in the presence of various concentrations of the compounds according to the invention. Upon infection, the viral tat protein activates the GFP reporter. At the end of the incubation period, the GFP signal was measured. […] The inhibitory activity of the compound was monitored on the virus-infected cells and was expressed as EC50. These values represent the amount of the compound required to protect 50% of the cells from virus infection.

beagle dog [4] = test: Single dose escalation/five day repeat dose toxicology study in beagle dog; format: in vivo
Protocol: In a single dose escalation/S day repeat dose dog toxicology study, beagle dogs were treated with compound II according to the current invention at dose levels from 40 up to 144 mg/kg day.

[5] = Plasma exposure (AUC) in single-dose, dose-escalating dog study; format: in vivo, Beagle dogs; conditions: beagle
Protocol: as §1, with “edema. The concentration of the compound having formula (II) in dog plasma was determined using a LC-MS/MS method. Raw data were used to calculate standard pharmacokinetic parameters (e.g. AUC) as a measure of systemic exposure. The systemic exposure for the compound having formula (II) was compared to the exposure of a reference compound having structural formula (III), in similar single-dose experiments in dogs, in the absence of a booster (ritonavir).” for “edema.”

[6] = test system: clinically isolated HIV strain D; test: Cellular anti-viral assay in MT4-LTR-EGFP cells, mutant strain D; format: cell-based; conditions: Human immunodeficiency virus 1, 72 h, read-out: pEC50 virus strain D (converted)
Protocol: (§2) Because of the increasing emergence of drug resistant HIV strains, the present compounds were tested for their potency against clinically isolated HIV strains harboring several mutations. These mutations are associated with resistance to protease inhibitors and result in viruses that show various degrees of phenotypic cross-resistance to the currently commercially available drugs such as for instance saquinavir, ritonavir, nelfinavir, indinavir and amprenavir. The viral strains coded as A, B, C and D contain mutations as indicated below in Table 2.
(§3) The cellular assay was performed according to the following procedure. HIV- or mock-infected MT4-LTR-EGFP cells were incubated for three days in the presence of various concentrations of the compounds according to the invention. Upon infection, the viral tat protein activates the GFP reporter. At the end of the incubation period, the GFP signal was measured. In the virus control samples (in the absence of any inhibitor) the maximal fluorescent signal was obtained. The inhibitory activity of the compound was monitored on the virus-infected cells and was expressed as EC50. These values represent the amount of the compound required to protect 50% of the cells from virus infection. (Table 3).

[7] = test system: clinically isolated HIV strain A; test: Cellular anti-viral assay in MT4-LTR-EGFP cells, mutant strain A; format: cell-based; conditions: Human immunodeficiency virus 1, 72 h, read-out: pEC50 virus strain A (converted)
Protocol: as §2, §3

[8] = test system: clinically isolated HIV strain B; test: Cellular anti-viral assay in MT4-LTR-EGFP cells, mutant strain B; format: cell-based; conditions: Human immunodeficiency virus 1, 72 h, read-out: pEC50 virus strain B (converted)
Protocol: as §2, §3

[9] = test system: clinically isolated HIV strain C; test: Cellular anti-viral assay in MT4-LTR-EGFP cells, mutant strain C; format: cell-based; conditions: Human immunodeficiency virus 1, 72 h, read-out: pEC50 virus strain C (converted)
Protocol: as §2, §3

[10] = Pharmacokinetics of compound II and boosting effect of ritonavir in fed male beagle dogs; format: in vivo; conditions: for AUC(0-inf) / Cmax: male, beagle, dog, plasma, po
Protocol: Pharmacokinetics of Compound II and Boosting Effect of Ritonavir in Fed Male Beagle Dogs after Single Oral Administration of Compound II at 10 or 40 mg/kg.
The present study was performed to study the plasma pharmacokinetics of compound II in male beagle dogs after single oral administration doses of 10 and 40 mg/kg, and to evaluate the potential boosting effect of ritonavir, dosed at 10 mg/kg twice daily, on the bioavailability of compound II.
Beagle dogs (7-11 kg body weight) were dosed after feeding. Both compound II and ritonavir were given by gavage of an oral solution. All animals first received compound II alone, and after a washout of one week, the combination of ritonavir and compound II in the morning. Ritonavir dosing was repeated in the evening and on the next day's morning. Plasma was sampled to measure compound II and ritonavir concentrations until 32 hours after dosing of compound II.

beagle dog [11] = test: Oral 3 month dog toxicology study; format: in vivo
Protocol: In some cases, these symptoms started as maculate erythema and/or nodular swelling and progressed to diffuse/general erythema and swelling. Signs were predominantly visible in areas with thin/sparse fur including the ears, periorbital region and abdomen. The findings were transient, with maximal severity about one hour after dosing and disappearing or decreasing to lower severity by 4 hours post-administration.

[12] = 10 mg/kg, 10 mg/kg compound II single oral, with Ritonavir 10 mg/kg twice daily
[13] = 10 mg/kg, 10 mg/kg compound II single oral, without Ritonavir
[14] = 40 mg/kg compound II single oral, with Ritonavir 10 mg/kg twice daily
[15] = 40 mg/kg, 40 mg/kg compound II single oral, without Ritonavir

For `CC(C)CN(C[C@@H](O)[C@H](Cc1ccccc1)NC(=O)O[C@H]1CO[C@H]2OCC[C@H]21)S(=O)(=O)c1ccc2nc(NC3CCN(C4CCCC4)CC3)sc2c1` [Compound 7, (1-benzyl-3-{[2-(1-cyclopentyl-piperidin-4-ylamino)-benzothiazole-6-sulfonyl]-isobutyl-amino}-2-hydroxy-propyl)-carbamic acid hexahydro-furo[2,3-b]furan-3-yl ester], the Erythema/edema (Beagle dogs [1]; 1-month study, dose levels 5, 20 and 40 mg/kg/day) was “neither erythema nor edema was noted”, the “erythema and edema after oral administration” value (Beagle dogs [1]) was “did not induce erythema and/or edema” and the Erythema/edema (Beagle dogs [2]; oral single dose 20 mg/kg, with ritonavir (RTV) coadministration) was “No”. The Erythema/edema (Beagle dogs [2]; oral single dose 40 mg/kg, with ritonavir (RTV) coadministration) was “No”, the Erythema/edema (Beagle dogs [2]; oral single dose 80 mg/kg, with ritonavir (RTV) coadministration) was “No” and the “induction of erythema and/or edema” value (Beagle dogs [2]) was “did not induce erythema and/or edema”. For the same molecule, the EC50 [3] was 13.2 nM, the edema or erythema (beagle dog [4]; dose levels from 40 up to 144 mg/kg day) was “No evidence of edema or erythema” and the AUC ([5]; oral single dose 20 mg/kg, with ritonavir (RTV) coadministration, mean of 4 animals) was 7750 ng·h/mL. The AUC ([5]; oral single dose 40 mg/kg, with ritonavir (RTV) coadministration, mean of 4 animals) was 23000 ng·h/mL, the AUC ([5]; oral single dose 80 mg/kg, with ritonavir (RTV) coadministration, mean of 4 animals) was 23000 ng·h/mL and the EC50 [6] was 13.5 nM. For the same molecule, the EC50 [7] was 11.7 nM, the EC50 [8] was 20 nM and the EC50 [9] was 2880 nM. For the same molecule, the “Cmax Ratio (with/without Ritonavir)” value ([10]; 10 mg/kg compound II) was 7.1, the “Relative bioavailability Frel (AUC0-inf with vs without Ritonavir)” value ([10]; 10 mg/kg compound II) was 1378% and the “Cmax Ratio (with/without Ritonavir)” value ([10]; 40 mg/kg compound II) was 3.6. For the same molecule, the “Relative bioavailability Frel (AUC0-inf with vs without Ritonavir)” value ([10]; 40 mg/kg compound II) was 1083%, the “increase of AUC in the presence of ritonavir” value ([10]; 10 and 40 mg/kg compound II) was “over 10 fold” and the “increase of Cmax in the presence of ritonavir” value ([10]; 10 and 40 mg/kg compound II) was 4 to 7 fold. For the same molecule, the AUC(0-inf) [10, 12] was 4370 ng·h/mL, the Cmax [10, 12] was 879 ng/mL and the AUC(0-inf) [10, 13] was 330 ng·h/mL. It also gave a Cmax [10, 13] of 123 ng/mL, an AUC(0-inf) [10, 14] of 23600 ng·h/mL and a Cmax [10, 14] of 4220 ng/mL. The AUC(0-inf) [10, 15] was 2290 ng·h/mL, the Cmax [10, 15] was 1190 ng/mL and the “total plasma exposure (AUC) and peak plasma concentrations (Cmax) after co-administration with ritonavir” value ([10]; twice-daily dosing of 10 mg/kg ritonavir, in words) was “markedly increased”.

In the case of `CC(C)CN(C[C@@H](O)[C@H](Cc1ccccc1)NC(=O)O[C@H]1CO[C@H]2OCC[C@H]21)S(=O)(=O)c1ccc2nc(NCCN3CCCC3)sc2c1` [Reference compound having formula (III)], the “redness of the skin (erythema)” value (Beagle dogs [1]; 28 day study, all dose levels (40, 80, 120 mg/kg/day), most animals) was “slight to severe redness of the skin”, the “onset of erythema symptoms” value (Beagle dogs [1]; 28 day study, dose levels 80 and 120 mg/kg/day) was “present from the start of the study” and the “onset of erythema symptoms” value (Beagle dogs [1]; 28 day study, low dose level 40 mg/kg/day) was “third week”. The “swelling (edema) accompanying erythema” value (Beagle dogs [1]; 28 day study, head, flews, eyes and/or ears, most cases) was “accompanied by swelling (edema)”, the “time after dosing of maximal erythema/edema findings” value (Beagle dogs [1]; 28 day study, transient findings) was 1 to 2 h and the “erythema and edema after oral administration” value (Beagle dogs [1]) was “produced erythema and edema”. For the same molecule, the Erythema/edema (Beagle dogs [2]; single dose 10 mg/kg, absence of booster) was “No”, the Erythema/edema (Beagle dogs [2]; single dose 40 mg/kg, absence of booster) was “No” and the Erythema/edema (Beagle dogs [2]; single dose 80 mg/kg, absence of booster) was “Yes”. For the same molecule, the Erythema/edema (Beagle dogs [2]; single dose 120 mg/kg, absence of booster) was “Yes”, the “induction of erythema and/or edema” value (Beagle dogs [2]) was “did induce these clinical signs” and the erythema (beagle dog [4]; high dose level 80 mg/kg/day, after five consecutive days of treatment) was “exhibited general erythema”. For the same molecule, the AUC ([5]; oral, single dose 10 mg/kg, absence of booster, range) was 47 to 238 ng·h/mL, the AUC ([5]; oral, single dose 40 mg/kg, absence of booster, range) was 3320 to 5090 ng·h/mL and the AUC ([5]; oral, single dose 80 mg/kg, absence of booster, range) was 7370 to 16000 ng·h/mL. For the same molecule, the AUC ([5]; oral, single dose 120 mg/kg, absence of booster, range) was 10200 to 27500 ng·h/mL, the erythema or edema (beagle dog [11]; 10 mg/kg/day) was “No erythema or edema was observed” and the erythema (beagle dog [11]; 40 mg/kg/day, after 5 weeks of treatment) was “one of four males dosed at 40 mg/kg/day exhibited general erythema”. The “erythema of the skin and swelling” value (beagle dog [11]; 120 mg/kg/day, majority of the animals, entire treatment period) was “slight to severe erythema of the skin, accompanied by swelling” and the “time after dosing of maximal severity of erythema/swelling” value (beagle dog [11]; 3 month study, transient findings) was “about one”.

Reference: patent US8202887B2, “2-(substituted-amino)-benzothiazole sulfonamide HIV protease inhibitors” (Janssen R&D Ireland, priority 2006, dated 2012)
